Laboratory results taken from patent US5824646A, “Intravaginal delivery of biologically active polypeptides” (Teikoku Seiyaku Co., Ltd., priority 1997, dated 1998).
Where no end group is shown, it is not given here.

Assays:
[1] = test system: oophorectomized female Wister rats; experiment: Serum calcium decrease after intravaginal porcine calcitonin in young oophorectomized rats; assay type: in vivo, rat
Description: Oophorectomy was performed on 5- to 6-week old female Wister rats which, after about one month, were used in this experiment as an animal model for postmenopausal women.
To 20 I.U. porcine calcitonin, 3 mg of bovine serum albumin (BSA) was added. Sodium lauryl sulfate (hereinafter called "SDS") was then added to the above-prepared mixture to make 0.05, 0.1, 0.5 and 1 w/v% concentrations, respectively. The mixtures of different SDS concentrations were then each diluted with 0.1M acetic acid/sodium acetate buffer solution (pH 5.0) to make 1 ml calcitonin solutions. Rats were anesthetized with ether, and a required amount of blood was taken from the right external jugular vein before the administration of calcitonin. After a small cotton ball was inserted into the vagina of the rat, each 50 microliters of calcitonin solution of different SDS concentrations was administered. Blood was again extracted 2 hours after calcitonin administration.
After the separation of blood serum, serum calcium concentration was determined with a Calcium C test kit, a registered trademark at Wako Chemical in Japan. The results are depicted in FIG. 1.
Oophorectomized menopausal model rats were used in this experiment, similarly to Example 1.
Bovine serum albumin was added to each 1 ml of 2, 10, 20, 40 and 80 I.U./ml of porcine calcitonin dissolved in acetic acid buffer solution (pH 5.0) to make 3 mg/ml. Then, SDS was added to each solution to make 1 w/v%. Similarly to Example 1, these preparations containing different concentrations of calcitonin were administered intravaginally to the rats, and the serum calcium concentration was determined. […] The largest ratio of decreased serum calcium against control noted in this experiment was 30%.

intravaginal protease = experiment: Protease activity of vaginal wash with BAEE as substrate after intravaginal preparation; assay type: biochemical, rat
Description: The calcitonin pharmaceutical preparation was prepared according to Examples 1 and 2. The preparation was inserted into the vagina with a small cotton ball. Two hours after the insertion, the inserted cotton ball was removed from the vagina. The vagina was then washed with a fixed quantity of phosphate buffered saline solution, the washed solution was combined with the cotton ball, and the protease activity was determined with BAEE as substrate.

oophorectomized rats [2] = experiment: Serum calcitonin (RIA) and serum calcium after intravaginal human calcitonin with SDS; assay type: in vivo, rat; conditions: 10-200 micrograms HCT per kg, 0.3% BSA, 1 w/v% SDS, pH 5, 2 hours
Description: Similarly to Examples 1 and 2, oophorectomized rats were used in this experiment. 1000 micrograms of Human calcitonin (HCT) was dissolved in 1 ml of 0.1M acetate buffer (pH 5) containing 0.3 w/v% bovine serum albumin and 1 w/v% SDS. 10, 25, 50, 100 and 200 micrograms of HCT (protein weight) in solution per 1 kg body weight of rats were taken out of the HCT solution mentioned above, and each portion of the HCT solution was diluted up to 50 microliters with 0.1M acetate buffer (pH 5) containing 0.3% (w/v%) bovine serum albumin and 1 w/v% SDS. Each 50 microliters of HCT solution with a different amount of HCT was administered into the vagina with a small cotton ball. Two hours after drug administration, blood was extracted from the right external jugular vein of the anesthetized rat, and serum calcium was determined with a Calcium C test kit. Serum calcitonin was also determined by a radioimmunoassay method (RIA method), using human calcitonin antibody.

oophorectomized rats [3] = experiment: Serum H-CT (RIA) and serum calcium after intravaginal H-CT with sodium caprate and Nonidet P-40; assay type: in vivo, rat; conditions: 250 micrograms H-CT, 0.3% BSA, 1% sodium caprate, 2% Nonidet P-40, pH 5, 1, 2 and 4 hours
Description: Oophorectomized rats were used in this experiment in a similar manner as Example 3. 1 mg of H--CT was dissolved in 400 microliters of 0.1M acetate buffer (pH 5) containing 0.3 w/v% bovine serum albumin (BSA) and 1% sodium caprate and 2% Nonidet P-40. 100 microliters of H--CT solution (250 micrograms H--CT) was administered into the vagina of the rat with a small cotton ball. Blood samples were taken from the right external jugular vein of the anesthetized rats at 1, 2 and 4 hours after administration. Serum calcium was determined with a Calcium C test kit. Serum H--CT was also determined by the RIA method using human calcitonin antibody.

oophorectomized rats [4] = experiment: Serum glucose after intravaginal insulin preparation; assay type: in vivo, rat; conditions: 5 U. insulin, 1 w/v% SDS
Description: The oophorectomized rats described in Example 1 were used in this experiment. The insulin pharmaceutical preparation prepared according to this invention was administered intravaginally to the rats, and the change in plasma glucose was investigated. Bovine serum albumin and SDS were added to a solution of 100 U./ml insulin in 0.1M acetic acid/sodium acetate buffer solution to make a final concentration of 3 mg/ml and 1 w/v%, respectively. The pH was adjusted to 5.0 with 0.1M acetic acid/sodium acetate buffer solution. The 5 U. insulin preparation was administered into the vagina of the rat with a small cotton ball. Serum glucose at 2 hours after drug administration was compared with that before drug administration. It was noted that at 2 hours after drug administration, the blood sugar level decreased about 30% in comparison with that prior to drug administration.

[5] = test system: aged, oophorectomized rats; experiment: Serum calcium decrease by porcine calcitonin in aged oophorectomized rats; assay type: in vivo, rat; conditions: intramuscular injection (femoral bicipital muscle), different concentrations
Description: The ovaries of 30-week-old female Wister rats were excised about one month before use in the experiment.
Prior to this experiment, a separate experiment was performed to investigate the susceptibility of aged, oophorectomized rats to porcine calcitonin. Different concentrations of calcitonin were injected into rats in the femoral bicipital muscle, and the decreasing serum calcium was determined.
Following the procedure of Examples 1 and 2, a dose of 4 I.U. calcitonin per rat was prepared and administered intravaginally by inserting a small cotton ball in the vagina. Following the procedure of Examples 1 and 2, blood was extracted and the blood calcium concentration was determined.

[6] = test system: 5-week-old Wister male rats; experiment: Effect of SDS on calcitonin stability: bioassay of stored preparations by intramuscular injection; assay type: in vivo, rat
Description: A porcine calcitonin (P--CT) pharmaceutical preparation according to the invention was prepared by the method described in Examples 1 and 2, and the stability of porcine calcitonin in the resultant preparation was investigated. Thus, 1 ml of 3 mg/ml bovine serum albumin (BSA) solution was added to 40 I.U. of porcine calcitonin, and the mixture was divided into two equal portions. SDS was added to one of the portions to make a final concentration of 0.1 w/v%; and no SDS was added to the other portion. The pH of both of the preparations was then adjusted to pH 5 with acetic acid/sodium acetate buffer (0.1M) solution. These two preparations were then stored at 37° C. for 8 days. The biological activity of calcitonin of the 8-day stored preparations was then investigated using 5-week-old Wister male rats. A dosage of 0.12 I.U./kg calcitonin of these two preparations was administered to the rats by injection into the femoral muscle. One hour after drug administration, blood was extracted from the right external jugular vein, and the blood calcium content was determined.

[7] = test system: 5-week-old male Wister rats; experiment: Effect of pH and human serum albumin on calcitonin stability: bioassay by intramuscular injection; assay type: in vivo, rat; conditions: 0.03 I.U./ml, 4° C. for one week, bioassay 0.06 I.U./kg i.m.
Description: Using blood calcium decreasing ratio as an indication, the effect of pH and human serum albumin (HSA) on the stability of calcitonin in the preparation of this invention was investigated using 5-week-old male Wister rats.
Purified porcine calcitonin (P--CT) was dissolved in 0.1M acetic acid buffer solutions of pH 3.0 and pH 5.0 and 0.1M phosphoric acid buffer solution of pH 6.8 so that each of the solutions contained 0.03 I.U./ml of porcine calcitonin. Each calcitonin solution (pH 3.0, 5.0, 6.8) was divided into two parts. In each case, to one portion of the calcitonin solutions 3 mg/ml of HSA was added, while no treatment was performed on the other portion. The resultant preparations were stored at 4° C. for one week. These calcitonin preparations were then each injected into the femoral bicipital muscle of the rats at a dosage of 0.06 I.U. per kg body weight. An appropriate quantity of blood was extracted from the right external jugular vein, and blood […] was determined with a Calcium C-Test kit.

oophorectomized rats [8] = experiment: Serum calcium and serum calcitonin after intravaginal S-CT suppository; assay type: in vivo, rat; conditions: PEG suppository, 250 micrograms S-CT, BSA, Nonidet P-40, sodium caprate, 1, 2 and 4 hrs
Description: The model animals and experimental procedures are similar to that described in Example 10. The suppositories used in this Example were prepared as follows. 1 mg of S--CT was dissolved in 100 microliters of 0.1M acetate buffer solution (pH 5) containing 1.5 mg of BSA (bovine serum albumin), 10 mg of Nonidet P-40, and 5 mg of sodium caprate. 383 mg of suppository base composed of PEG 4000 (33%), PEG 6000 (47%) and distilled water (20%) was warmed to 45° to 50° C., then mixed well with the S--CT solution using a Vortex mixer for 1 min, then transferred into a brass suppository mold and cooled to approximately 4° C. for 2 hrs. 125 mg of S--CT suppository contained 250 micrograms of S--CT. 250 micrograms of a S--CT suppository was administered into the rat vagina. 1, 2, and 4 hrs after administration, blood samples were taken, and the serum calcium concentration and the serum calcitonin were determined by the same method used in Example 10.

[9] = 3 mg/ml BSA, pH 5.0, after 2 hours

CCCCCCCCCCCCOS(=O)(=O)[O-].[Na+] [SDS, Sodium lauryl sulfate]
ratio of decreased serum calcium concentration against the control ([1]; porcine calcitonin 20 I.U./ml, 3 mg BSA, SDS 0.05, 0.1, 0.5 and 1 w/v%, pH 5.0, 50 microliters intravaginal, 2 hours, control without SDS): increased correspondingly with increasing concentration of SDS | decrease of protease activity in comparison with the control group (intravaginal protease; 1% SDS added group versus control without SDS): about 30% | protease activity relative to control (control = 100.0) (intravaginal protease; 1% SDS in calcitonin preparation, vaginal wash 2 hours after insertion): 29.2 | protease activity (intravaginal protease; 1% SDS in calcitonin preparation, vaginal wash plus cotton ball 2 hours after insertion): 6.84 BAEE units/mg protein

Human calcitonin [HCT]
serum calcitonin (RIA) (oophorectomized rats [2]): increased proportionally to the increase in the dosage of calcitonin administered into the vagina | serum calcium (oophorectomized rats [2]): decreased correspondingly with increase in calcitonin dosage | serum calcitonin (RIA) (oophorectomized rats [3]): increased proportionally to the increase in the dosage of calcitonin administered into the vagina | serum calcium (oophorectomized rats [3]): decreased correspondingly with an increase in calcitonin dosage

insulin
Glucose Concentration in Serum (oophorectomized rats [4]; [9]): 53 ± 24.6 mg/dL | Glucose Concentration in Serum relative to prior to administration (100) (oophorectomized rats [4]; [9]): 70.7% | decrease of blood sugar level in comparison with that prior to drug administration (oophorectomized rats [4]; BSA, 2 hours): about 30%

porcine calcitonin (CSNLSTCVLSAYWRNLNNFHRFSGMGFGPETP; ends and bridges not checked; cysteine pairing not given here; UniProt P01259 1-32, looked up) [P-CT]
ratio of decreased serum calcium against control (dose response) ([1]; 2, 10, 20, 40 and 80 I.U./ml porcine calcitonin, 3 mg/ml BSA, 1 w/v% SDS, pH 5.0, intravaginal): exhibited an increase proportional to the increase of calcitonin concentration | largest ratio of decreased serum calcium against control ([1]; 2-80 I.U./ml porcine calcitonin, 3 mg/ml BSA, 1 w/v% SDS, intravaginal, young oophorectomized rats): 30% | largest ratio of decreased serum calcium against control [5]: about 10% | Ratio of Decreased Calcium Concentration Against Control, 0 day ([6]; P-CT (40 I.U.)/0.3% BSA/ml, pH 5.0, freshly made, 0.12 I.U./kg i.m., 1 hour): 20.7 | Ratio of Decreased Calcium Concentration Against Control, 8 days (at 37° C.) ([6]; P-CT (40 I.U.)/0.3% BSA/ml, pH 5.0, stored 8 days at 37° C., 0.12 I.U./kg i.m., 1 hour): 11.1 | biological activity after the 8-day storage period ([6]; stored at 37° C. for 8 days, pH 5, compared with freshly made preparation): decreased to about half that of the freshly made preparation | stability of calcitonin in pH 6.8 solution with HSA ([7]; 3 mg/ml HSA added): became as stable as calcitonin in a solution of pH 3.0 or 5.0 | stability of calcitonin in buffer solutions without HSA, pH 3.0 and 5.0 ([7]; 0.1M acetic acid buffer): stable | stability of calcitonin in buffer solution without HSA, pH 6.8 ([7]; 0.1M phosphoric acid buffer): unstable

salmon calcitonin [S--CT]
absorption of S-CT and its biological activity (oophorectomized rats [8]): exhibit a dose-dependent response
